Here are results for 19 compounds from ChEMBL document CHEMBL5096199, “Structure-Based Optimization of Small Molecule Human Galactokinase Inhibitors” (J Med Chem, 2021).

In series [1] the target is T1, Galactokinase (Homo sapiens, UniProt P51570). Description: Inhibition of recombinant human GALK1 using galactose as substrate incubated for 1 hrs in the presence of ATP by Kinase-Glo reagent based luminescence assay. In general terms: Kinase-Glo reads ATP consumption through a luciferase reaction.
Series [2] is described as follows: physchem. Particulars: phosphate buffer, pH 7.4.
Description: Kinetic solubility of the compound in phosphate buffer at pH 7.4 at 150 uM incubated for 6 hrs by shake-flask method
A short description of series [3]: Metabolic stability in mouse liver microsome assessed as half life. Particulars: microsomes. It is filed as ADME. (In general: Liver microsomes are a subcellular fraction often used to study metabolism.)
Series [4] is described as follows: Metabolic stability in human liver microsomes assessed as half life. The format is ADME, Microsome.
The nature of series [5]: Permeability of the compound at pH 7.4 measured after 30 mins by PAMPA based LC/MS analysis. The format is ADME. Particulars: for Papp at 0.5 h: PAMPA, pH 7.4, read-out: permeability. On the technique in general: In PAMPA a lipid-coated filter parts donor from acceptor wells.
The nature of series [6]: AUCinfinity in CD-1 mouse at 30 mg/kg, po measured upto 24 hrs by LC-MS/MS analysis. It is filed as ADME, organism-based. Also on record: time < 24 hrs, dose 30 mg/kg, route po. Particulars: in vivo.
The target in series [7] is T1, Galactokinase. As to the kind of experiment: Inhibition of human GALK1 in GALT-deficient human fibroblast assessed as reduction in gal-1P level incubated for 2 to 4 hrs by cellular Gal-1P accumulation assay. The format is cell-based. Particulars: dose 0.5-3 µM, time 2-4 hrs, DDE = dose-dependent effect.
Series [8] in a line: Oral bioavailability in CD-1 mouse at 30 mg/kg measured upto 24 hrs by LC-MS/MS analysis. The format is ADME, organism-based. Particulars: in vivo.
Series [9] is described as follows: Tmax in CD-1 mouse at 50 mg/kg, ip measured upto 24 hrs by LC-MS/MS analysis. The format is ADME, organism-based. Particulars: in vivo.
Series [10] is described as follows: AUClast in CD-1 mouse at 30 mg/kg, po measured upto 24 hrs by LC-MS/MS analysis. The format is ADME, organism-based. Also on record: dose 30 mg/kg, time < 24 hrs, route po. Particulars: in vivo.
Series [11] is described as follows: Dose normalized AUClast in CD-1 mouse at 50 mg/kg, ip measured upto 24 hrs by LC-MS/MS analysis. The format is ADME, organism-based. Particulars: in vivo.
Series [12] is described as follows: AUCinfinity in CD-1 mouse at 3 mg/kg, iv measured upto 24 hrs by LC-MS/MS analysis. It is filed as ADME, organism-based. Also on record: time < 24 hrs, dose 3 mg/kg, route iv. Particulars: in vivo.
A short description of series [13]: Dose normalized AUClast in CD-1 mouse at 30 mg/kg, po measured upto 24 hrs by LC-MS/MS analysis. The format is ADME, organism-based. Particulars: in vivo.
The nature of series [14]: Half life in CD-1 mouse at 30 mg/kg, po measured upto 24 hrs by LC-MS/MS analysis. Particulars: in vivo. It is filed as ADME, organism-based.
Series [15] addresses T1, Galactokinase. Description: Inhibition of human GALK1 in GALT-deficient human fibroblast assessed as reduction in gal-1P level at 3 uM incubated for 2 to 4 hrs by cellular Gal-1P accumulation assay relative to control. It is filed as cell-based. Particulars: time 2-4 hrs.
Series [16] is described as follows: Half life in CD-1 mouse at 50 mg/kg, ip measured upto 24 hrs by LC-MS/MS analysis. It is filed as ADME, organism-based. Particulars: in vivo.
Series [17] is described as follows: AUCinfinity in CD-1 mouse at 50 mg/kg, ip measured upto 24 hrs by LC-MS/MS analysis. It is filed as ADME, organism-based. Also on record: time < 24 hrs, dose 50 mg/kg, route ip. Particulars: in vivo.
The nature of series [18]: Cmax in CD-1 mouse at 50 mg/kg, ip measured upto 24 hrs by LC-MS/MS analysis. The format is ADME, organism-based. More on the design: dose 50 mg/kg, time < 24 hrs, route ip. Particulars: in vivo.
The nature of series [19]: C0 in CD-1 mouse at 3 mg/kg, iv measured upto 24 hrs by LC-MS/MS analysis. It is filed as ADME, organism-based. Particulars: in vivo.
Series [20] is described as follows: Plasma protein binding in CD-1 mouse. The format is ADME, cell-free.
Series [21] is described as follows: Drug concentration in CD-1 mouse plasma at 3 mg/kg, iv measured after 2 hrs by LC-MS/MS analysis. Particulars: in vivo, BLD = below limit of detection. It is filed as ADME, organism-based.
A short description of series [22]: Dose normalized AUClast in CD-1 mouse at 3 mg/kg, iv measured upto 24 hrs by LC-MS/MS analysis. The format is ADME, organism-based. Particulars: in vivo.
The nature of series [23]: Drug concentration in CD-1 mouse plasma at 50 mg/kg, ip measured after 7 hrs by LC-MS/MS analysis. The format is ADME, organism-based.
Series [24] in a line: Tmax in CD-1 mouse at 30 mg/kg, po measured upto 24 hrs by LC-MS/MS analysis. The format is ADME, organism-based. Particulars: in vivo.
A short description of series [25]: AUClast in CD-1 mouse at 50 mg/kg, ip measured upto 24 hrs by LC-MS/MS analysis. The format is ADME, organism-based. More on the design: time < 24 hrs, dose 50 mg/kg, route ip. Particulars: in vivo.
Series [26] is described as follows: Cmax in CD-1 mouse at 30 mg/kg, po measured upto 24 hrs by LC-MS/MS analysis. More on the design: time < 24 hrs, dose 30 mg/kg, route po. Particulars: in vivo. It is filed as ADME, organism-based.
The nature of series [27]: Observed volume of distribution at steady state in CD-1 mouse at 3 mg/kg, iv measured upto 24 hrs by LC-MS/MS analysis. It is filed as ADME, organism-based. Particulars: in vivo, read-out: Vdss.
The nature of series [28]: Half life in CD-1 mouse at 3 mg/kg, iv measured upto 24 hrs by LC-MS/MS analysis. It is filed as ADME, organism-based. Particulars: in vivo.
A short description of series [29]: AUClast in CD-1 mouse at 3 mg/kg, iv measured upto 24 hrs by LC-MS/MS analysis. More on the design: time < 24 hrs, dose 3 mg/kg, route iv. Particulars: in vivo. The format is ADME, organism-based.

Values after ≈ are worked out from the molar mass of the structure shown.

T1 sequence (P51570 whole entry): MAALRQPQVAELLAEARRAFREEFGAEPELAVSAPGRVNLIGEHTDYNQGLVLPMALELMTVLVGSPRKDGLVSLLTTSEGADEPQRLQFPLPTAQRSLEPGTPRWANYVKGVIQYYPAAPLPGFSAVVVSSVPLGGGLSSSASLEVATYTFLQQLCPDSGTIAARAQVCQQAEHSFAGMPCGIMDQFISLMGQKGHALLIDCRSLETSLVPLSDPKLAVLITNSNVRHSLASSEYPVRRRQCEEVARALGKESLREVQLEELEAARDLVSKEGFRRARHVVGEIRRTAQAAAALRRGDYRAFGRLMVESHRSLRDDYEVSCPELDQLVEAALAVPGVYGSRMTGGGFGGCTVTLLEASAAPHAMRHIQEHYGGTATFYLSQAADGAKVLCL

Take `CC1=C(C(=O)Nc2nnc(C)s2)C(c2ccccc2Cl)N=C(Nc2nc3ccccc3o2)N1` (stereo not given): the IC50 in series [1] (read-out: pIC50 (converted)) was 5250 nM.

In the case of `CC1=C(C(=O)Nc2cc(C(=O)O)ccn2)C(c2ccccc2Br)N=C(Nc2nc3ccc(F)cc3o2)N1` (stereo not given), the IC50 in [1] (read-out: pIC50 (converted)) was 562 nM.

As for `CC1=C(C(=O)Nc2cc(C(=O)O)ccn2)C(c2ccccc2Cl)N=C(Nc2nc3cccc(C)c3o2)N1` (stereo not given), the IC50 in series [1] (read-out: pIC50 (converted)) was 933 nM.

Turning to `CCn1cc(CNC(=O)C2=C(C)NC(Nc3nc4ccc(F)c(N)c4o3)=N[C@H]2c2ccc(C)cc2Cl)cn1`, the kinetic solubility (as a rule, solubility judged after dilution from a stock solution rather than from solid) at 6 h, 150 µM in [2] was under 1 µg/mL. The IC50 in series [1] (read-out: IC50) is 68 nM. The t1/2 in series [3] came out at 7 min; in series [4], 12 min. The Papp at 0.5 h in series [5] is 773 ×10⁻⁶ cm/s.

For the compound `CCn1cc(CNC(=O)C2=C(C)NC(Nc3nc4cccc(N)c4o3)=NC2c2ccc(C)cc2Cl)cn1` (racemic), the solubility (kinetic) at 6 h, 150 µM in series [2] worked out at 2.4 µg/mL (≈ 4.62 µM). In series [4], the t1/2 stood at 120 min. Besides, in series [5], the Papp at 0.5 h was found to be 632 ×10⁻⁶ cm/s.

On to `CC1=C(C(=O)NCc2cnn(C)c2)C(c2ccc(C)cc2Cl)N=C(Nc2nc3ccc(F)c(N)c3o2)N1` (racemic), for which the AUC (usually concentration integrated over time) in series [6] came to 16.06 µM·h; in series [12], 4.81 µM·h; in [17], 80.36 µM·h. In addition, the inhibition (as a rule, the relative decrease from the control value, in per cent) was “Dde” in series [7] and 50% in series [15]. Also, in series [8], the F is given as 33%. The Tmax – broadly, the time at which the peak concentration occurs – stood at 79.98 min in series [9] and 40.2 min in series [24]. Moreover, the results for the AUClast in series [10], in series [25] and in [29] were 15.96 µM·h, 80.36 µM·h and 4.66 µM·h, respectively. Also, the values for the AUClast/dose in series [11], in series [13] and in [22] were 841 ng·h/mL/(mg/kg), 278 ng·h/mL/(mg/kg) and 812 ng·h/mL/(mg/kg), respectively. Besides, the t1/2 in series [14] was found to be 136 min; in series [16], 102 min; in [3], 14 min; in series [28] it was 24.6 min. The Cmax (usually the maximum level reached in the sampled fluid or tissue) in [18] came to 21.9 µM; in [26], 7.02 µM. In addition, the solubility (kinetic) at 6 h, 150 µM in [2] came out at 1.3 µg/mL (≈ 2.49 µM). For the same compound, the C0 at 24 h in series [19] stood at 8.25 µM. Moreover, the PPB in series [20] is 98.74%. Moreover, in [21], the Cp result is “Bld”. Further, the IC50 in series [1] (read-out: IC50) stood at 48 nM. Besides, in series [23], the concentration at 7 h is over 1 µM. In [27], the Vd was determined as 0.652 L/kg. In series [5], the Papp at 0.5 h came out at 485 ×10⁻⁶ cm/s.

Regarding `COc1ccc(C2N=C(Nc3nc4ccc(F)cc4o3)NC(C)=C2C(=O)Nc2cc(C(=O)O)ccn2)c(Cl)c1` (stereo not given), the IC50 in series [1] (read-out: pIC50 (converted)) was 447 nM.

In the case of `CC1=C(C(=O)Nc2cccc(C(=O)O)c2)C(c2ccccc2Cl)N=C(Nc2nc3ccccc3o2)N1` (stereo not given), the IC50 in series [1] (read-out: pIC50 (converted)) was 2630 nM.

Take `CC1=C(C(=O)NCc2ccc(CO)cc2)C(c2ccccc2Cl)N=C(Nc2nc3ccccc3o2)N1` (stereo not given): in series [1] (read-out: pIC50 (converted)), the IC50 was 6610 nM.

Turning to `CC1=C(C(=O)Nc2ccccc2Cl)C(c2ccccc2Cl)N=C(Nc2nc3ccccc3o2)N1` (stereo not given), in series [1] (read-out: pIC50 (converted)), the IC50 is 4170 nM.

With `CCn1cc(CNC(=O)C2=C(C)NC(Nc3nc4ccc(F)c(N)c4o3)=N[C@@H]2c2ccc(C)cc2Cl)cn1`, the kinetic solubility at 6 h, 150 µM in series [2] came out at 2.1 µg/mL (≈ 3.91 µM). Moreover, the IC50 in series [1] (read-out: pIC50 (converted)) was 1480 nM. In addition, the figures for the t1/2 in series [3] and in [4] were 12 min and 10 min, respectively. Moreover, the Papp at 0.5 h in [5] worked out at 407 ×10⁻⁶ cm/s.

For `CC1=C(C(=O)Nc2cc(C(=O)O)ccn2)C(c2ccccc2Cl)N=C(Nc2nc3c(C)cccc3o2)N1` (stereo not given), the IC50 in [1] (read-out: pIC50 (converted)) was 9330 nM.

On to `CC1=C(C(=O)NCc2cnn(C)c2)C(c2ccccc2Cl)N=C(Nc2nc3ccccc3o2)N1` (stereo not given), for which, in series [1] (read-out: pIC50 (converted)), the IC50 was 1410 nM.

In series [2], `CC1=C(C(=O)NCc2cnn(C)c2)C(c2ccc(C)cc2Cl)N=C(Nc2nc3cccc(N)c3o2)N1` (racemic) had a solubility (kinetic) at 6 h, 150 µM of 8.3 µg/mL (≈ 16.4 µM). Also, in [1] (read-out: pIC50 (converted)), the IC50 is 209 nM. Also, the results for the t1/2 in [3] and in [4] were 11 min and 32 min, respectively. Besides, the permeability in series [5] (pampa, pH 7.4, 0.5 h) is 315 10^-6 cm/s.

As for `CC1=C(C(=O)Nc2ccccc2)C(c2ccccc2Cl)N=C(Nc2nc3ccccc3o2)N1` (stereo not given), the IC50 in series [1] (read-out: pIC50 (converted)) is 10500 nM.

As for `CC1=C(C(=O)Nc2ccc(O)cc2)C(c2ccccc2Cl)N=C(Nc2nc3ccccc3o2)N1` (stereo not given), the IC50 in series [1] (read-out: pIC50 (converted)) is 3720 nM.

Compound `CC1=C(C(=O)NCc2cnn(C)c2)[C@H](c2ccc(C)cc2Cl)N=C(Nc2nc3cccc(N)c3o2)N1` registered a solubility (kinetic) at 6 h, 150 µM in series [2] of 17 µg/mL (≈ 33.7 µM). Besides, the IC50 in [1] (read-out: pIC50 (converted)) is 120 nM. Also, the t1/2 is recorded as 7 min in [3] and 37 min in series [4]. For the same compound, in series [5], the Papp at 0.5 h came out at 661 ×10⁻⁶ cm/s.

`CC1=C(C(=O)NCc2cn(C)cn2)C(c2ccccc2Cl)N=C(Nc2nc3ccccc3o2)N1` (stereo not given): the IC50 in series [1] (read-out: pIC50 (converted)) was 1050 nM.

As to `COC(=O)c1ccc(NC(=O)C2=C(C)NC(Nc3nc4ccccc4o3)=NC2c2ccccc2Cl)cc1` (stereo not given), the results for the IC50 in series [1] (read-out: IC50) and in [1] (read-out: pIC50 (converted)) were 4320 nM and 4470 nM, respectively.
